In the NIST ThermoML archive (doi:10.1007/s10765-011-0939-5):
± gives the expanded uncertainty stated by the source.

Conditions: Crystal; triple pt. cell

Triple point temperature | SMILES
24.54 ± 8e-05 K | [20Ne] [neon-20]
24.69 ± 8e-05 K | [22Ne] [neon-22]
